“Also recorded” adds a separate entry of the source.
Tests used:
[1] = test system: mouse bone marrow derived macrophages (BMDM); assay: ISG and MSR gene transcripts by RT-qPCR in BMDM; format: cell-based; conditions: 24 hours, 9-TB 1.88 μg/ml, ATc 3.75 and 7.5 μg/ml vs Dox 7.5-15 μg/ml
[2] = test system: hsp-6::gfp reporter (UPR^mt); format: in vivo, Caenorhabditis elegans; conditions: for UPR^mt activation (hsp-6::gfp reporter): 68 µM, 9-TB at 17 μM; for induction of MSR and in particular mitohormesis: summary of screen of 51 tetracycline derivatives
[3] = test system: IFV H1N1 PR8 strain; assay: IFV infection in BALB/cN mice, 760 PFU, therapeutic treatment; format: in vivo, mouse; conditions: 9-TB 0.025 and 0.05 mpkd from day 1 post-inoculation, trend, not significant
Description: A. Comparison of bacterial community composition by nonmetric multidimensional scaling (NMDS) based on the Bray-Curtis dissimilarity. B. Comparison of bacterial species diversity in terms of Shannon diversity index (SDI) and richness. Statistical significance assessed by Kruskal-Wallis test and post-hoc Wilcoxon test with p-value adjusted for multiple comparison using the Holm-Bonferroni method. ‘****’: p<0.0001, ‘***’: p<0.001, ‘**’: p<0.01, ‘*’: p<0.05, ‘ns’: p>0.05. C-D. 8-weeks old BALB/cN mice (n=12) were infected intranasally with 760 PFU of IFV-A H1N1 PR8 and injected with 9-TB (0.05, 0.025 mpkd). Survival (C) and clinical score (D) were followed for 14 days post-infection (n=12). Statistical analysis was performed by ANOVA followed by Tukey post-hoc test (*p≤0.05, **p≤0.01, ***p≤0.001). For survival curves, statistical analysis was performed by Log-rank (Mantel-Cox) test (*p≤0.05, **p≤0.01, ***p≤0.001). Error bars represent standard error mean (SEM).
A. Descriptive scheme of the mouse IFV infection experiment depicted in FIG. 5C-D, S5B. B. 8-weeks old BALB/cN mice (n=12) were infected intranasally with 760 PFU of IFV-A H1N1 PR8 and injected with 9-TB (0.05, 0.025 mpkd). Body weight was followed for 14 days post-inoculation (n=12). C. […]

[4] = test system: HEK293T cells; assay: Mitonuclear protein imbalance (MTCO1/ATP5A immunoblot) in HEK293T cells; format: cell-based, human; conditions: 24 hours, stronger than Dox
Description: The mitonuclear protein imbalance may be determined by a disbalanced ratio between a mitochondrial-encoded gene (e.g. MTCO1) versus a nuclear-encoded gene (e.g. ATP5A) of OXPHOS subunits as is illustrated by FIG. 3A.
A. Immunoblots of HEK293T cells for the OXPHOS subunits ATP5A (encoded in nuclear DNA) and MTCO1 (encoded in mitochondrial DNA) with TUBULIN serving as a control. Quantification of the relative MTCO1/ATP5A ratio is shown on the right. […] Statistical analysis was performed by ANOVA followed by Tukey post-hoc test (*p≤0.05, **p≤0.01, ***p≤0.001). Error bars represent standard error mean (SEM).
HEK293T (Human embryonic kidney 293T) cells were purchased from ATCC and have been routinely checked in the laboratory for mycoplasma contamination with the MycoProbe detection kit (R&D systems). […]
Tissues and cells were lysed using RIPA buffer (50 mM Tris-HCl pH 7.4, 150 mM NaCl, 1% NP-40, 0.5% Na-deoxycholate, 0.1% SDS, 2 mM EDTA, and 50 mM NaF) supplemented with protease and phosphatase inhibitor cocktails (Roche/Thermo Fisher Scientific). […] Protein concentration was determined by the Lowry method. […] Samples were analyzed by immunoblotting using standard procedures.

[5] = test system: IFV-A H1N1 PR8 infected BALB/cN mice; assay: RNA-Seq and GSEA of lung, liver and kidney of IFV infected mice (175 PFU, day 7)
[6] = test system: P. aeruginosa; assay: Minimum inhibitory concentration (MIC) of bacterial growth; format: cell-based; conditions: compared with Dox
[7] = test system: IFV H1N1 PR8 strain; assay: IFV infection in BALB/cN mice, 1000 PFU, preventive treatment; format: in vivo, mouse; conditions: Dox 50 mpkd
[8] = test system: IFV H1N1 PR8 strain; assay: IFV infection in BALB/cN mice, 175 PFU, preventive treatment; format: in vivo, mouse; conditions: for survival (mice recovering): Dox 40 mpkd or 9-TB 1 mpkd daily i.p., all control mice dead by day 11
[9] = test system: gut bacterial community; conditions: Dox 40 mpkd; for gut bacterial community composition (perMANOVA, NMDS): after 3 and 6 days of treatment, 9-TB 1 mpkd, vs untreated mice
[10] = test system: mouse bone marrow derived macrophages (BMDM); assay: IFNβ measurement in BMDM culture medium (ELISA); format: cell-based; conditions: 24 hours, 9-TB 1.88 μg/ml, ATc 3.75 and 7.5 μg/ml vs Dox 7.5-15 μg/ml
[11] = test system: HEK293T cells; assay: Oxygen consumption rate in HEK293T cells (Seahorse XF96); format: cell-based, human; conditions: 24 h, compared with Dox
Description: B. Oxygen consumption rate of HEK293T cells exposed to different concentrations of Dox, 9-TB, or ATc (n=8). […] Error bars represent standard error mean (SEM).
HEK293T (Human embryonic kidney 293T) cells were purchased from ATCC and have been routinely checked in the laboratory for mycoplasma contamination with the MycoProbe detection kit (R&D systems). HEK293T were grown at 37° C. in a humidified atmosphere of 5% CO2/95% air in DMEM medium with 4.5 g/L glucose (Gibco) including 10% FBS (Gibco), 1× nonessential amino acids (Invitrogen) and 5 mM penicillin/streptomycin (Invitrogen). Cells were treated for 24 h with the indicated doses of compounds 24 hours after seeding. Oxygen consumption rate was measured with the Seahorse XF96 instrument (Seahorse Bioscience) according to the manufacturer's protocol.

[12] = test system: HEK293T cells; assay: MSR gene transcripts by RT-qPCR in HEK293T cells; format: cell-based, human; conditions: 24 h, compared with Dox
Description: Transcript levels of the indicated MSR genes measured by RT-qPCR (n=4).
HEK293T (Human embryonic kidney 293T) cells were purchased from ATCC and have been routinely checked in the laboratory for mycoplasma contamination with the MycoProbe detection kit (R&D systems). HEK293T were grown at 37° C. in a humidified atmosphere of 5% CO2/95% air in DMEM medium with 4.5 g/L glucose (Gibco) including 10% FBS (Gibco), 1× nonessential amino acids (Invitrogen) and 5 mM penicillin/streptomycin (Invitrogen). Cells were treated for 24 h with the indicated doses of compounds 24 hours after seeding.
RNA from cells and tissues was extracted using TRIzol and then reverse-transcribed into cDNA by the QuantiTect Reverse Transcription Kit (Qiagen) following the manufacturer's instructions. The qPCR reactions were performed using the LightCycler 480 II system and SYBR Green qPCR Master mix (Roche). All results are presented relative to the mean of housekeeping genes (ΔΔCt method). All mRNA expression levels were corrected for expression of the housekeeping gene 36B4 or Actb for samples of mouse origin, ACTB for samples of human origin.

[13] = test system: E. coli; assay: Minimum inhibitory concentration (MIC) of bacterial growth; format: cell-based; conditions: compared with Dox
[14] = test system: hsp-6::gfp reporter (UPR^mt); format: in vivo, Caenorhabditis elegans; conditions: microfluidic device; relative to Dox and cco-1 RNAi
[15] = test system: germ-free C57BL/6J mice; format: in vivo, mouse; conditions: Dox 500 mpkd in drinking water, 16 days, vs control
Description: B. Volcano plots displaying-log(adj. p-value) and the log fold change (FC) in expression of genes in kidney and liver. Above the graph, the number of differentially expressed genes is indicated (genes with adjusted p value (adj.pval)<0.05). C. […] E. Immunoblots of phosphorylated elF2α (pelF2α) and total elF2α and quantification in liver of Dox-treated germ-free mice.
Body weight at the time of the sacrifice was not different between the control and Dox-treated animals (FIG. 7A), indicating the absence of obvious adverse effects. […] Dox elicited organ-specific transcriptional responses, with the expression of remarkably more genes and different being affected in the kidney compared to the liver (FIG. 7B-C). […] The MSR features the induction of mitochondrial chaperones and proteases, such as Hspa9 and Lonp1, as well as of enzymes mediating adaptation to nutrient deprivation, such as asparagine synthetase (ASNS), which were increased at both the transcript and protein levels (FIG. 1C-D). […] Dox-treated germ-free mice kidneys thus gathered the typical attributes of the ATF4-ISR, a hallmark of the mammalian response to mitochondrial stress.
Male 9 weeks-old C57BL/6J mice were treated for 16 days with 500 mg/kg/day doxycycline hyclate (Sigma) in drinking water. Mice were housed with ad libitum access to water and food and kept under a 12-hour dark/12-hour light cycle. […]

In the case of `C[C@H]1c2ccc(C(C)(C)C)c(O)c2C(O)=C2C(=O)[C@]3(O)C(O)=C(C(N)=O)C(=O)[C@@H](N(C)C)[C@@H]3[C@@H](O)[C@@H]21` [9-TB, 9-tert-butyl-doxycycline], the “induction of the ISGs and MSR genes” value [1] is reported as “superior to Dox”, the “UPR^mt activation (hsp-6::gfp reporter)” value [2] is reported as “strongest activators” and the “induction of MSR and in particular mitohormesis” value [2] is reported as “strongest inducer of MSR”. The survival [3] was 20%, the “impact on the mitonuclear protein imbalance” value [4] was ~2 fold and the “inflammatory and immune-related terms in the lungs (GSEA)” value ([5]; 9-TB 1 mpkd vs control IFV-infected) was “significantly down-regulated”. For the same compound, the “immune-related and inflammatory gene sets in liver and kidney (GSEA)” value ([5]; 9-TB 1 mpkd, Dox 40 mpkd) was “down-regulated”, the “lung cell type transcript profiles (GSEA)” value ([5]; 9-TB 1 mpkd, Dox 40 mpkd) was “reverted the loss of multiple cell types crucial to lung function” and the “MIC for P. aeruginosa” value [6] was “significantly higher MIC”. The “mortality and decline in health” value ([7]; 9-TB 12.5 mpkd i.p.) was “delayed mortality”, the “viral titer in the lungs” value ([7]; day 5 post-infection, 9-TB 12.5 mpkd) was “absence of an impact on the viral titer” and the “survival (mice recovering)” value [8] was 50%. For the same compound, the “viral titer in the lung tissue” value ([8]; day 7 post infection, Dox 40 mpkd, 9-TB 1 mpkd) was “no significant difference in viral titer”, the “gut bacterial community composition (perMANOVA, NMDS)” value [9] was “no differences were observed” and the “secretion of IFNβ” value [10] was “superior to Dox”. For the same compound, the “basal oxygen consumption rate (OCR)” value [11] was “reduced basal oxygen consumption rate (OCR) in a dose-dependent and more pronounced fashion than Dox”, the “induction of transcripts for the mammalian MSR signature genes” value [12] was “more prominent” and the “MIC for E. coli” value [13] was “significantly higher MIC”. For the same compound, the “UPR^mt induction, dose-response (GFP signal)” value [14] was “more efficacious at lower doses; also recorded: surpassing the robust UPR^mt caused by cco-1 RNAi feeding”.
For `Cc1c2c(c(O)c3c(O)cccc13)C(=O)[C@]1(O)C(=O)C(C(N)=O)=C(O)[C@@H](N(C)C)[C@@H]1C2` [ATc, anhydrotetracycline], the “induction of the ISGs and MSR genes” value [1] was “superior to Dox”, the “UPR^mt activation (hsp-6::gfp reporter)” value [2] was “strongest activators” and the “induction of MSR and in particular mitohormesis” value [2] was “strongly induce MSR”. For the same compound, the “impact on the mitonuclear protein imbalance” value [4] was ~2 fold, the “secretion of IFNβ” value [10] was “superior to Dox” and the “basal oxygen consumption rate (OCR)” value [11] was “reduced basal oxygen consumption rate (OCR) in a dose-dependent and more pronounced fashion than Dox”. For the same compound, the “induction of transcripts for the mammalian MSR signature genes” value [12] was “more prominent” and the “UPR^mt induction, dose-response (GFP signal)” value [14] was “more efficacious at lower doses”.
In the case of `C[C@H]1c2cccc(O)c2C(=O)C2=C(O)[C@]3(O)C(=O)C(C(N)=O)=C(O)[C@@H](N(C)C)[C@@H]3[C@@H](O)[C@@H]21` [Dox, doxycycline], the “gene sets involved in cytopathic processes and fibrosis in liver and kidney” value ([5]; Dox 40 mpkd) is reported as “induced”, the “Body weight at the time of the sacrifice” value [15] is reported as “not different” and the “survival (mice recovering)” value [8] is reported as 50%. For the same compound, the “bacterial species diversity (Shannon diversity index and richness)” value [9] was “lower bacterial species diversity” and the “gut bacterial community composition (perMANOVA, NMDS)” value [9] was “significant difference in composition”.

From patent US20240299420A1, “TETRACYCLINE DERIVATIVE-INDUCED MITOHORMESIS MEDIATES DISEASE TOLERANCE AGAINST VIRAL INFECTIONS” (priority 2021, published 2024)
